Values after ≈ are worked out from the molar mass of the structure shown. Values joined by “and” are separate entries in the source; they are usually repeats but may differ in a detail not shown here. Equal values may be shown once.
Legend:
[1] = Thermogravimetric analysis (TGA-MS) and oven heating of the carbonate crystals; type: physicochemical
Source text: Thermogravimetric analysis coupled with mass spectrometry (TGA-MS) provided a more quantitative picture of the decomposition process.

[2] = pKa by potentiometric titration; type: physicochemical; conditions: 25° C., read-out: pKa of the two guanidinium groups
[3] = Reaction enthalpies of elementary steps in DAC with PyBIG (van't Hoff analyses); type: physicochemical; conditions: for ΔH, PyBIGH2(CO3)(H2O)4 crystallization: equation 6
Source text: It is instructive to compare the thermodynamics of the CO2 absorption by PyBIG with those of other sorbents used in DAC. For example, amine sorbents have absorption enthalpies in the range of 60-80 kJ/mol. […] Thus, the actual CO2 ‘binding’ by PyBIG, corresponding to equations 3-5 combined, has an enthalpy of −109.8 kJ/mol. This is essentially the same as the enthalpy of CO2 absorption by aqueous NaOH. The crystallization step (equation 6) then adds −47 kJ/mol, to make the overall absorption process a combined −156 kJ/mol, which is about twice as exothermic compared to the CO2 absorption by a typical amine sorbent. However, dissolution of PyBIG (equation 1), which is endothermic (+42.5 kJ/mol) and essentially offsets the exothermic crystallization in step 6, and proton transfer from water to the guanidine groups (equation 2), which is also endothermic (+43.6), brings the overall enthalpy for CO2 capture by PyBIG (equation 7) to −70.7 kJ/mol.

[4] = Accelerated aging of PyBIG (thermal stability); type: physicochemical
[5] = Equilibrium constant for the amino acid regeneration reaction (equation 11); type: physicochemical; conditions: glycine sorbent, ideal conditions
Source text: In addition to the enthalpies of CO2 absorption and release, another important thermodynamic parameter is the equilibrium constant for the amino acid regeneration reaction (equation 10), which defines the efficiency limit for sorbent regeneration.

physchem = conditions: pH 10, water, thermodynamic from solid
[6] = Aqueous solubility and solubility product (variable-temperature solubility measurements); conditions: saturated solution (~10 mM)
[7] = cited from earlier work; for reaction rate of CO2 with sorbent: 25° C.
[8] = cited from earlier work
[9] = CO2 release and PyBIG regeneration by solar oven heating; type: physicochemical
Experimental: The CO2 release from the PyBIGH2(CO3)(H2O)4 crystals was conducted by solar heating with a solar oven. The oven consists of a vacuum-insulated borosilicate tube placed in the focal point of two adjustable parabolic reflectors. The temperature inside the tube was monitored with a thermocouple. The PyBIGH2(CO3)(H2O)4 samples 36.4-45.0 mg, 0.095-0.118 mmol) were loaded in 1 mL glass vials, which were placed inside the oven tube. The solar oven was then placed in the full sun and oriented to capture the maximum amount of sunlight. The temperature was ramped to the targeted values of 120° C., 130° C., 140° C., 150° C., or 160° C. as fast as possible (typically within 3 to 10 minutes), then held within ±2° C. by intermittently moving the oven out of the sun, or/and closing the reflectors. The samples were subsequently removed from the tube, allowed to cool to room temperature, and weighed to determine their mass loss. The resulting yellow solids were analyzed by FTIR to confirm the disappearance of the carbonate and water peaks. The solar regeneration experiments were repeated three times at each temperature, and the average values and standard deviations calculated.
However, considering that this transformation is highly endothermic, the possibility of using concentrated solar power to render the process more energy sustainable was explored. For the initial small-scale proof of concept, a solar oven was used to heat solid PyBIGH2(CO3)(H2O)4 samples (˜38 mg, 0.1 mmol) at five different temperatures ranging between 120 and 160° C. FTIR analyses corroborated the release of CO2, most evidently noticeable by the disappearance of the strong peak at 1361 cm^−1 corresponding to the stretching mode of the carbonate anion.

[10] = Differential scanning calorimetry (DSC), enthalpy of CO2 release; type: physicochemical
Source text: In order to determine the enthalpy of CO2 release from PyBIGH2(CO3)(H2O)4, differential scanning calorimetry (DSC) was employed. DSC is a common technique used in thermal analysis of solids. […] Unfortunately, the extensive overlap between the peaks prevented a determination of the heats associated with each thermal event. Instead, all the peaks were integrated together to obtain the overall enthalpy of desorption for PyBIGH2(CO3)(H2O)4, which amounts to 223±4 kJ/mol. While the overall reaction is highly endothermic, it should be taken into account that, for each CO2 molecule released from PyBIGH2(CO3)(H2O)4, there are four molecules of hydration that are desorbed (plus a fifth water molecule that is a bi-product of the carbonate decomposition).
In order to determine the fraction of the reaction enthalpy corresponding to the CO2 release from the carbonate, anhydrous PyBIGH2(CO3) was prepared by overnight vacuum pumping of PyBIGH2(CO3)(H2O)4 at 30° C. […] The difference between the measured endotherms of PyBIGH2(CO3)(H2O)4 and PyBIGH2(CO3), of 148 kJ/mol, can be assigned to dehydration of the carbonate salt. This corresponds to an average of 37 kJ/mol per water of hydration, which is close to the enthalpy of vaporization for liquid water, of 40.65 kJ/mol. While a large fraction of the heat required to release the CO2 is spent on water evaporation, part of the waste heat could be recovered by process modifications that involve water condensation steps in which the resulting heat is collected and re-used via heat exchangers. Alternatively, vacuum-drying operations that typically require less energy than heat drying can be employed for dehydration of PyBIGH2(CO3)(H2O)4 prior to CO2 release. The use of renewable sources of energy, such as concentrated solar power, is also herein being considered to make the overall DAC process energy sustainable.

[11] = liquid; cited from earlier work

SMILES: N=C(N)N/N=C/c1cccc(/C=N/NC(=N)N)n1 [PyBIG]
- no decomposition up to (TGA-MS) ([1]; regenerated compound): 190 °C
- pKa [2]: 7.6
- ΔH, PyBIG dissolution ([3]; equation 1): 10.2 kcal/mol
- ΔH, PyBIG protonation ([3]; equation 2, sum of both protonation enthalpies plus twice water deprotonation): 43.6 kJ/mol and 43.6^a kJ/mol
- ΔH, PyBIGH2(CO3)(H2O)4 crystallization [3]: -11.2 kcal/mol
- enthalpy of CO2 'binding' ([3]; equations 3-5 combined): -26.24 kcal/mol
- enthalpy of absorption incl. crystallization step ([3]; equations 3-6 combined): -37.3 kcal/mol
- initial weight loss corresponding to CO2 and H2O loss ([4]; 120° C. in open air): 35.3%
- weight loss during accelerated aging (TGA) ([4]; 120° C. in open air for a week, after initial loss): 0.5%
- log Kreg [5]: 3.5
- solubility (physchem): ~10 mM (≈ 2470 µg/mL)
- pH of saturated solution [6]: about 10

SMILES: [Na+].[OH-] [NaOH]
- flux of CO2 absorbed from air ([7]; 1 M solution): around 30 μmol/m^2/s

SMILES: NCC(=O)O [glycine]
- reaction rate of CO2 with sorbent [7]: ~13.9 kM/s

SMILES: O=C=O [CO2, carbon dioxide]
- ΔH, CO2 dissolution ([8]; equation 3): -4.64 kcal/mol

SMILES: O=C(O)O [HCO3^−, bicarbonate]
- ΔH, HCO3^− formation ([8]; equation 4): -12 kcal/mol

SMILES: O=C(O)O [CO3^2−, carbonate]
- ΔH, CO3^2− formation ([8]; equation 5): -9.66 kcal/mol

SMILES: CNCC(=O)O [sarcosine]
- reaction rate of CO2 with sorbent [7]: ca. 18.6 kM/s

SMILES: O=C([O-])[O-].[Ca+2] [CaCO3, reference compound]
- CO2 release on solar heating ([9]; two hours at 160° C.): no CO2 release was observed

SMILES: N=C(N)NN=Cc1cccc(C=NNC(=N)N)n1.O=C(O)O [PyBIGH2(CO3)]
- enthalpy of the CO2 release (DSC) ([10]; anhydrous carbonate salt): 17.9 ± 1.4 kcal/mol

SMILES: N=C(N)NN=Cc1cccc(C=NNC(=N)N)n1.O.O.O.O.O=C(O)O [PyBIGH2(CO3)(H2O)4]
- decomposition completion, isothermal TGA ([1]; 80° C., after 300 minutes): 77%
- time to complete loss of carbon dioxide and water, isothermal TGA ([1]; 100° C.): 150 min
- time to complete loss of carbon dioxide and water, isothermal TGA ([1]; 120° C.): 60 min
- mass loss, temperature-ramped TGA ([1]; between 65 and 140° C.): 35.2%
- mass loss of crystals heated in the oven ([1]; one hour at 120° C.): 34.3%
- ΔH, PyBIGH2(CO3)(H2O)4 crystallization [3]: -11.2 kcal/mol
- average enthalpy per water of hydration [10]: 8.84 kcal/mol
- overall enthalpy of desorption (DSC) ([10]; all peaks between 80 and 140° C. integrated): 53.3 ± 0.96 kcal/mol
- enthalpy of dehydration of the carbonate salt ([10]; difference between endotherms of hydrated and anhydrous salt): 35.4 kcal/mol
- Weight loss ([9]; 120 ° C., 30 min): 32.3 ± 0.8%
- Weight loss ([9]; 130 ° C., 15 min): 32.3 ± 0.8%
- Weight loss ([9]; 140 ° C., 10 min): 33.2 ± 0.8%
- Weight loss ([9]; 150 ° C., 5 min): 32.5 ± 0.8%
- Weight loss ([9]; 160 ° C., 2 min): 33.8 ± 0.3%

SMILES: O [water]
- enthalpy of vaporization [11]: 9.716 kcal/mol

— US10583387B2, “Guanidine compounds for carbon dioxide capture” (UT-Battelle, LLC, priority 2017, dated 2020)
